Patent publication US20250255867A1 (Kadmon Corporation, LLC, priority 2022, published 2025)
Structures can show the parent of a compound that is named as a salt.

Assays:
[1] = Solubility of belumosudil mesylate; format: physicochemical
[2] = Example 1: plasma pharmacokinetics (Cmax, Tmax, AUC0-6 hr) of belumosudil and metabolites; format: in vivo, human
Description: Cmax was the maximum observed plasma concentration, obtained by a non-compartmental analysis. […] Timeframe: Cycles 1 and 2: pre-dose (0 hour), 1, 2, 3, 4, 5, and 6 hours post-dose on Day 1. […] Here, ‘number analyzed’=participants with available data for each specified category.
Tmax was defined as time to reach maximum observed plasma concentration, obtained by a non-compartmental analysis. […] Timeframe: Cycles 1 and 2: pre-dose (0 hour), 1, 2, 3, 4, 5, and 6 hours post-dose on Day 1. Analysis was performed on PK population. Here, ‘number analyzed’=participants with available data for each specified category.
AUC0-6 hr was defined as area under the plasma concentration versus time curve from time 0 to 6 hours post-dose, obtained by a non-compartmental analysis from the concentration-time data. […] Timeframe: Cycles 1 and 2: pre-dose (0 hour), 1, 2, 3, 4, 5, and 6 hours post-dose on Day 1. Analysis was performed on PK population. Here, ‘number analyzed’=participants with available data for each specified category.

[3] = Cohort 1: Belumosudil 200 mg QD, Cycle 1 Day 1
[4] = Cohort 1: Belumosudil 200 mg QD, Cycle 2 Day 1
[5] = Cohort 2: Belumosudil 200 mg BID, Cycle 1 Day 1
[6] = Cohort 2: Belumosudil 200 mg BID, Cycle 2 Day 1
[7] = Cohort 3: Belumosudil 400 mg QD, Cycle 1 Day 1
[8] = Cohort 3: Belumosudil 400 mg QD, Cycle 2 Day 1

CC(C)NC(=O)COc1cccc(-c2nc(Nc3ccc4[nH]ncc4c3)c3ccccc3n2)c1 [Belumosudil mesylate, 2-{3-[4-(1H-indazol-5-ylamino)-2-quinazolinyl]phenoxy}-N-(propan-2-yl) acetamide methanesulfonate (1:1)]
Solubility in DMF [1]: slightly soluble | Solubility in DMSO [1]: soluble | Solubility in methanol [1]: slightly soluble | Solubility in water [1]: practically insoluble

NC(=O)COc1cccc(-c2nc(Nc3ccc4[nH]ncc4c3)c3ccccc3n2)c1 [KD025m1]
Area Under the Plasma Concentration Versus Time Curve From Time 0 to 6 Hours Post-dose (AUC0-6 hr), Geometric Mean (Geometric Coefficient of Variation) [2, 3]: 140 (72.3%) hours*nanograms per milliliter | Maximum Observed Plasma Concentration (Cmax), Geometric Mean (Geometric Coefficient of Variation) [2, 3]: 44.4 (67.9%) nanograms per milliliter | Area Under the Plasma Concentration Versus Time Curve From Time 0 to 6 Hours Post-dose (AUC0-6 hr), Geometric Mean (Geometric Coefficient of Variation) [2, 4]: 123 (38.2%) hours*nanograms per milliliter | Maximum Observed Plasma Concentration (Cmax), Geometric Mean (Geometric Coefficient of Variation) [2, 4]: 36.2 (43.0%) nanograms per milliliter | Area Under the Plasma Concentration Versus Time Curve From Time 0 to 6 Hours Post-dose (AUC0-6 hr), Geometric Mean (Geometric Coefficient of Variation) [2, 5]: 114 (60.8%) hours*nanograms per milliliter | Maximum Observed Plasma Concentration (Cmax), Geometric Mean (Geometric Coefficient of Variation) [2, 5]: 34.8 (58.8%) nanograms per milliliter | Area Under the Plasma Concentration Versus Time Curve From Time 0 to 6 Hours Post-dose (AUC0-6 hr), Geometric Mean (Geometric Coefficient of Variation) [2, 6]: 160 (31.3%) hours*nanograms per milliliter | Maximum Observed Plasma Concentration (Cmax), Geometric Mean (Geometric Coefficient of Variation) [2, 6]: 45.0 (38.6%) nanograms per milliliter | Area Under the Plasma Concentration Versus Time Curve From Time 0 to 6 Hours Post-dose (AUC0-6 hr), Geometric Mean (Geometric Coefficient of Variation) [2, 7]: 216 (61.9%) hours*nanograms per milliliter | Maximum Observed Plasma Concentration (Cmax), Geometric Mean (Geometric Coefficient of Variation) [2, 7]: 63.9 (59.4%) nanograms per milliliter | Area Under the Plasma Concentration Versus Time Curve From Time 0 to 6 Hours Post-dose (AUC0-6 hr), Geometric Mean (Geometric Coefficient of Variation) [2, 8]: 178 (72.9%) hours*nanograms per milliliter | Maximum Observed Plasma Concentration (Cmax), Geometric Mean (Geometric Coefficient of Variation) [2, 8]: 55.8 (82.1%) nanograms per milliliter

O=C(O)COc1cccc(-c2nc(Nc3ccc4[nH]ncc4c3)c3ccccc3n2)c1 [KD025m2]
Area Under the Plasma Concentration Versus Time Curve From Time 0 to 6 Hours Post-dose (AUC0-6 hr), Geometric Mean (Geometric Coefficient of Variation) [2, 3]: 565 (90.8%) hours*nanograms per milliliter | Maximum Observed Plasma Concentration (Cmax), Geometric Mean (Geometric Coefficient of Variation) [2, 3]: 208 (93.1%) nanograms per milliliter | Area Under the Plasma Concentration Versus Time Curve From Time 0 to 6 Hours Post-dose (AUC0-6 hr), Geometric Mean (Geometric Coefficient of Variation) [2, 4]: 471 (145%) hours*nanograms per milliliter | Maximum Observed Plasma Concentration (Cmax), Geometric Mean (Geometric Coefficient of Variation) [2, 4]: 158 (150%) nanograms per milliliter | Area Under the Plasma Concentration Versus Time Curve From Time 0 to 6 Hours Post-dose (AUC0-6 hr), Geometric Mean (Geometric Coefficient of Variation) [2, 5]: 282 (125%) hours*nanograms per milliliter | Maximum Observed Plasma Concentration (Cmax), Geometric Mean (Geometric Coefficient of Variation) [2, 5]: 99.2 (112%) nanograms per milliliter | Area Under the Plasma Concentration Versus Time Curve From Time 0 to 6 Hours Post-dose (AUC0-6 hr), Geometric Mean (Geometric Coefficient of Variation) [2, 6]: 513 (122%) hours*nanograms per milliliter | Maximum Observed Plasma Concentration (Cmax), Geometric Mean (Geometric Coefficient of Variation) [2, 6]: 145 (147%) nanograms per milliliter | Area Under the Plasma Concentration Versus Time Curve From Time 0 to 6 Hours Post-dose (AUC0-6 hr), Geometric Mean (Geometric Coefficient of Variation) [2, 7]: 1150 (97.1%) hours*nanograms per milliliter | Maximum Observed Plasma Concentration (Cmax), Geometric Mean (Geometric Coefficient of Variation) [2, 7]: 388 (82.3%) nanograms per milliliter | Area Under the Plasma Concentration Versus Time Curve From Time 0 to 6 Hours Post-dose (AUC0-6 hr), Geometric Mean (Geometric Coefficient of Variation) [2, 8]: 923 (144%) hours*nanograms per milliliter | Maximum Observed Plasma Concentration (Cmax), Geometric Mean (Geometric Coefficient of Variation) [2, 8]: 265 (154%) nanograms per milliliter
